The nature of assay [1]: ABTS free-radical scavenging antioxidant assay. Particulars: absorbance at 734 nm. As to the method: ABTS free-radical scavenging assay was used to test the antioxidant capacity of compounds Y1 to Y4. The method can be found in many articles. 7 mM ABTS and 2.45 mM ammonium persulfate were blended and stored in a dark place 16 hours, and then diluted by 80% ethanol to obtain the working solution which gave an absorbance of 0.69 at 734 nm. The working solution and compounds were mixed and allowed to react for ten minutes, and then measured the absorbance at 734 nm (AI) was measured using spectrophotometer. L-ascorbic acid and 80% ethanol was used as a positive and blank control, respectively. The A0 value was the blank absorbance. The antioxidant rate (%) = (A0-AI)/A0 * 100%

For another assay, the target named is mushroom tyrosinase (Agaricus bisporus, UniProt C7FF04). The experiment in a line: Diphenolase activity of mushroom tyrosinase (L-DOPA substrate). Particulars: for Inhibition type: Lineweaver-Burk plots; for Inhibition type / KIS (inhibitor bonding with enzyme-substrate complex) / K IS (Table 1) / Inhibitory mechanisms: diphenolase; for KIS (inhibitor bonding with enzyme-substrate complex) / K IS (Table 1): L-DOPA; for KIS (inhibitor bonding with enzyme-substrate complex): secondary plot of intercepts; for K IS (Table 1): unit not given; for Inhibitory mechanisms: residual activity vs enzyme concentration. It is filed as biochemical. As to the method:
L-Tyr and L-DOPA were used as the substrate to test the monophenolase and diphenolase activities of tyrosinase, respectively. The reaction system (3 ml) contained 1.1 mM L-Tyr or 0.5 mM L-DOPA, 25 mM PBS buffer (pH 6.8) and different concentrations of the inhbitors. For monophenolase and diphenolase activities, the final concentration of tyrosinase was 33.3μg/ml and 6μg/ml, respectively. The increased optical density with the oxidation of the substrates at 475 nm (the absorption coefficient was 3700 M^−1cm^−1) within a certain time were measured by DU800 spectrophotometer. […] The Michaelis-Menten constant Km of tyrosinase was determined by Lineweaver-Burk plot with different concentrations of L-DOPA as substrate and the inhibition constants KI and KIS were determined by the secondary plots of the apparent Km/Vm or 1/Vm versus the concentration of the inhibitors. The inhibition mechanism was reflected by the […] with various concentrations of mushroom tyrosinase.

The target in another assay is T1, tyrosinase (Agaricus bisporus, UniProt C7FF04).
T1 construct: purchased Sigma Chemical Co. (St. Louis, MO, USA); host or cells: mushroom (natural source)
The experiment in a line: Fluorescence quenching of tyrosinase. Particulars: 0.3 mg/ml tyrosinase, excitation 280 nm, inhibitor 10 to 70 μM. It is filed as binding, mushroom. As to the method:
Fluorescence quenching means the decrease of fluorescence intensity between the fluorescent molecules and solute molecules. This method was usually used to study the interaction between conformation of protein molecules and small molecules. Cary Eclipse fluorescence spectrophotometer was used to record the fluorescence intensities with an excitation wavelength of 280 nm and emission slit widths of 5 nm. […] In this study, the inhibitor was added in 0.3 mg/ml tyrosinase solution to detect the fluorescence intensity changes and the final concentrations of inhibitor range from 10 to 70 μM.
Fluorescence quenching can be divided into static quenching and dynamic quenching. Dynamic quenching is a process, which has energy or electron transfer, while the static quenching process will generate complexes without fluorescence. The quenching rate between the fluorescent molecules and quenching agents followed the Stem.Volmer curve equation [43]: F0/F=1+KSV[Q]
In the formula, F0 is the intensity of fluorescence without quenching agent, F is the fluorescence intensity after adding quencher, Ksv (L/mol) represents the relationship of dynamic equilibrium between biological macromolecules and fluorescence quencher molecules after diffusing and colliding, and [Q] is the concentration of quencher. From Fig 4D, the Ksv of Y1, Y2 and Y3 was determined to be 94437, 7160983 and 159186 L/mol, respectively.

Results on six compounds are retold here after PMC4589318, “Synthesis of Triazole Schiff’s Base Derivatives and Their Inhibitory Kinetics on Tyrosinase Activity” (PLoS ONE, 2015).

Sequence of mushroom tyrosinase (C7FF04 1-392): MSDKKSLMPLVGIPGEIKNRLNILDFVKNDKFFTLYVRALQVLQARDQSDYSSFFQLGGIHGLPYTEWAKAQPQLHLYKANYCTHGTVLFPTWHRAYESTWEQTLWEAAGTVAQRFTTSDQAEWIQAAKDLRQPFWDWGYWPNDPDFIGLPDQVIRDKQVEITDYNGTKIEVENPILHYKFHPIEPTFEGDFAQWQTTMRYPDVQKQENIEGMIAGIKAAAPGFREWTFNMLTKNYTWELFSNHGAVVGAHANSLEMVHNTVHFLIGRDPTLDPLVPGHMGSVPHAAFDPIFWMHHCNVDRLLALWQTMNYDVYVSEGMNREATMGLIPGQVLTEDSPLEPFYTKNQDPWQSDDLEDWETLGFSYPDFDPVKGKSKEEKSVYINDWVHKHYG
T1 sequence (C7FF04 1-392 limits assumed): as the sequence (C7FF04 1-392) above

Turning to `NNc1nnc(S)n1N` [AHMZ, 4-Amino-3-hydrazino-5-mercapto-1,2,4-triazole, reference compound], in assay [1], the “antioxidant capacity rank order” value was “Y1 > Y2 > Y3 > Y4 > Vc > AHMZ”.
Regarding `Nn1c(S)nnc1N/N=C\c1cccc(F)c1` [Compound Y1, (Z)-4-amino-5-(2-(3-fluorobenzylidene)hydrazinyl)-4H-1,2,4-triazole-3-thiol], on mushroom tyrosinase, the Inhibition type entry was “Mixed”, the “KIS (inhibitor bonding with enzyme-substrate complex)” value is 4 µM, the “K IS (Table 1)” value is listed as 4 and the Inhibitory mechanisms entry is on record as “Reversible”. In addition, at tyrosinase, the “Ksv (Stern-Volmer quenching constant)” value was determined as 94437 L/mol. For the same compound, the “antioxidant capacity rank order” value in assay [1] was “Y1 > Y2 > Y3 > Y4 > Vc > AHMZ”.
In the case of `Nn1c(S)nnc1N/N=C\c1cccc(O)c1` [Compound Y2, (Z)-3-((2-(4-amino-5-mercapto-4H-1,2,4-triazol-3-yl)hydrazono)methyl)phenol], on mushroom tyrosinase, the Inhibition type entry is “Mixed”, the “KIS (inhibitor bonding with enzyme-substrate complex)” value turned out to be 27.8 µM, the “K IS (Table 1)” value is given as 28 and the Inhibitory mechanisms entry is on record as “Reversible”. The “antioxidant capacity rank order” value in assay [1] is “Y1 > Y2 > Y3 > Y4 > Vc > AHMZ”.
As for `Nn1c(S)nnc1N/N=C\c1ccccc1O` [Compound Y3, (Z)-2-((2-(4-amino-5-mercapto-4H-1,2,4-triazol-3-yl)hydrazono)methyl)phenol], on mushroom tyrosinase, the Inhibition type result is “Mixed”, the “KIS (inhibitor bonding with enzyme-substrate complex)” value amounted to 21.04 µM, the “K IS (Table 1)” value came out at 21.04 and the Inhibitory mechanisms result is on record as “Reversible”. Further, the “Ksv (Stern-Volmer quenching constant)” value at tyrosinase is 159186 L/mol. For the same compound, the “antioxidant capacity rank order” value in assay [1] was “Y1 > Y2 > Y3 > Y4 > Vc > AHMZ”.
As to `Oc1cccc(/C=N\Nc2nnc(S)n2/N=C/c2cccc(O)c2)c1` [Compound Y4, 3-((Z)-(2-(4-(((E)-3-hydroxybenzylidene)amino)-5-mercapto-4H-1,2,4-triazol-3-yl)hydrazono)methyl)phenol], the “antityrosinase activity (diphenolase screen)” value on mushroom tyrosinase (L-DOPA substrate) is given as “almost do not have antityrosinase activity”. Also, the “antioxidant capacity rank order” value in assay [1] is listed as “Y1 > Y2 > Y3 > Y4 > Vc > AHMZ”.
As for `O=C1O[C@H]([C@@H](O)CO)C(O)=C1O` [Vc, L-ascorbic acid, reference compound], the “antioxidant capacity rank order” value in assay [1] is on record as “Y1 > Y2 > Y3 > Y4 > Vc > AHMZ”.
